Measurements: patent publication US5019384A, “Immunonodulating compositions and their use” (Massachusetts Institute of Technology, priority 1989, dated 1991)
Entries after “also recorded” stand apart in the source; their conditions may differ.

Columns and labels:
I-E^k [1] = biological target: T1, I-E^k (Mus musculus, UniProt P04224+P04230); test: Gel filtration binding of 125I-labeled peptide to purified Ia (I-E^k)
T1 sequence (P04224 26-255): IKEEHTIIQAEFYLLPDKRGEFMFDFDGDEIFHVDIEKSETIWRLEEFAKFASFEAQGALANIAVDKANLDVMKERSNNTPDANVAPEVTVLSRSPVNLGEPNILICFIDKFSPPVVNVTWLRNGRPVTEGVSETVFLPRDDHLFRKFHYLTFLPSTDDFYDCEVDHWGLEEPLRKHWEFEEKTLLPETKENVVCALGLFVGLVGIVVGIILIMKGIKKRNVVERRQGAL
T1 sequence (P04230 27-264): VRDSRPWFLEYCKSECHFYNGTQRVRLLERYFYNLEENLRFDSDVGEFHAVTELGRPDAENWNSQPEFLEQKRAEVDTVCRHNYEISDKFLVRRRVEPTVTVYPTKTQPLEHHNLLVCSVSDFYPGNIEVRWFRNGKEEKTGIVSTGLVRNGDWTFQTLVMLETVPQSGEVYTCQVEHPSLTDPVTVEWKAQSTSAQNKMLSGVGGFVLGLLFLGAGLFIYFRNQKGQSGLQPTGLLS
Excerpt: (§1) The peptide P12-26 was modified by the addition of a tyrosine residue to the N-terminus to serve as an acceptor for the ^125 I.
(§2) Ia-molecules were purifed from Nonidet P-40 (NP-40) lysates of A20 (H2^d) or AKTB-1b (H2^k) cells by affinity chromatography using the following monoclonal antibodies: MK-D6 (I-A^d -specific), 10-3-6 (I-A^k -specific) specific) or 14-4-4 (I-E^d/k -specific) coupled to Sepharose 4B beads (Pharmacia Fine Chemicals, Sweden).
(§3) A gel filtration assay was used for determining the degree of association between immunogenic peptides and Ia. The assay is described in: Buus, S. et al., Proceeding of the National Academy of Sciences, U.S.A. (1986) 83:3968, the teaching of which is incorporated herein by reference. Briefly, 40 μmole of purified Ia in 1 percent NP-40/PBS was mixed with 0.2 μmole of ^125 I-labeled peptide (approximately 200,000 cpm for each experiment) and incubated for 48 hours at room temperature to allow for formation of the Ia-peptide complex. The Ia-peptide complexes were separated from free peptide by gel filtration and the percentage of peptide bound to Ia was calculated as the ratio of the ^125 I-labeled peptide in the void volume to the total ^125 I-labeled peptide recovered.

[2] = system: Lymph node-derived T-cell; test: Lymph node-derived T-cell proliferation in mice immunized with (NANP)3-12-26; type: in vivo; settings: eight days after immunization with (NANP)3-12-26
Method: For T-cell proliferation studies 100 μg of (NANP)3-12-26 emulsified in CFA was injected in the base of the tail and also food pad of mice on day 0. […] Cells were seeded at 8×10^5 /well flat bottom microtiter plates 1/2 volume in 0.1 ml RPMI containing 10% FCS, […], penicillin, streptomycin and antigen. On day 2, 1 μCi of ^3 H thymidine (ICN) was added to triplicate or duplicate cultures. 16 hr later cells were harvested and incorporated ^3 H was assayed by scintillation counter.
All T-cell activity is directed to the Class II binding sequence.

I-E^d = test: Restriction of peptide-specific T-cell hybrids assayed on L cells expressing I-A^d or I-E^d; type: cell-based, Balb/c mouse; settings: P12-26: of more than 300 hybrids; myoglobin (P135-147): of 80 hybrids
Excerpt: That is, they could be stimulated by antigen in the presence of L cells expressing I-A^d, but could not be shown to be stimulated by antigen in the presence of L cells expressing I-E^d.
(§4) The proliferation of these same cultures was not inhibited (75,000 cpm) by a monoclonal antibody, 34-1-4S, which is specific for I-E^d and which inhibits the stimulation of a hemocyanin specific, I-E^d resticted T-cell hybridoma.

[3] = system: T-cell hybridoma DO-11.10; type: cell-based
I-E^k [4] = biological target: T1, I-E^k; test: Inhibition of binding of 125I-labeled Cytochrome c (pigeon) (P88-104) to I-E^k; settings: 125I Cytochrome c (pigeon) (P88-104) bound to I-E^k; read-out: Concentration (μM) of P12-26 Required for 50 percent Inhibition
Excerpt: as §2
as §3, with “Briefly, 40 μmole of purified Ia in 1 percent NP-40/PBS was mixed with 0.2 μmole of ^125 I-labeled peptide (approximately 200,000 cpm for each experiment) and incubated for 48 hours at room temperature to allow for formation of the Ia-peptide complex.” left out
For the inhibition assay a dose-range of unlabeled cI P12-26 peptide was added to the incubation mixture of Ia and ^125 I-labeled peptide (600, 120, 24, ad 48 μM). The degree of association between Ia and labeled peptide was determined by gel filtration as described in Table 1. […] The concentration of inhibitory peptide required to obtain a 50 percent inhibition of binding was calculated. […]

I-A^d = biological target: T2, I-A^d (Mus musculus, UniProt P01921+P04228); test: Gel filtration binding of 125I-labeled peptide to purified Ia (I-A^d)
T2 construct: endogenous in cells
T2 sequence (P04228 24-256): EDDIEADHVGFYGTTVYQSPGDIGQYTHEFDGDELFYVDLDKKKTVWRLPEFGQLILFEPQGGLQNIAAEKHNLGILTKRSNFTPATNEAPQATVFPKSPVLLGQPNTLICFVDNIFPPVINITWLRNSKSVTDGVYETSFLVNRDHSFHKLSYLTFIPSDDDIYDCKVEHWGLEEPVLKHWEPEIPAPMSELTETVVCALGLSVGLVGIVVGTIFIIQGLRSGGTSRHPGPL
T2 sequence (P01921 28-265): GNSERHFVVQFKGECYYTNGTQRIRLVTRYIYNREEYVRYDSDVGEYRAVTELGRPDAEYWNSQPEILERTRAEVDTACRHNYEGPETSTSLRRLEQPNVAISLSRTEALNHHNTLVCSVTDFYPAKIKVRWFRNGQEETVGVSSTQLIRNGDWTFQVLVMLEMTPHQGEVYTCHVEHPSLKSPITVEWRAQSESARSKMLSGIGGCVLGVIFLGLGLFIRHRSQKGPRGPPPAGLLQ
Excerpt: as §1, §2, §3

[5] = system: lymph node-derived T-cells from P12-26 immune mice; test: Standard lymph node proliferation assay (thymidine incorporation); type: cell-based; settings: cultured with 10 μM P12-26
Excerpt: as §4

[6] = system: monoclonal antibody B3.11; test: Inhibition of monoclonal antibody B3.11 binding to BSA conjugated to P12-26; settings: BSA conjugated to P12-26 adsorbed to microwells; inhibitors listed in order of decreasing inhibition
Excerpt: Antibody recognition of (NANP)3-12-26 by monoclonal antibodies was studied. The antigen, bovine serum albumin (BSA) conjugated to P12-26 was adsorbed to microwells and horseradish peroxidase (HRP) labeled antibody specific for P12-26 added. In the absence of (NANP)3-12-26 or in the presence of P12-26LF, there is no inhibition of monoclonal antibody B3.11 binding.

I-A^k = biological target: T3, I-A^k (Mus musculus, UniProt P01910+P06343); test: Gel filtration binding of 125I-labeled peptide to purified Ia (I-A^k)
T3 construct: endogenous in cells
T3 sequence (P01910 24-256): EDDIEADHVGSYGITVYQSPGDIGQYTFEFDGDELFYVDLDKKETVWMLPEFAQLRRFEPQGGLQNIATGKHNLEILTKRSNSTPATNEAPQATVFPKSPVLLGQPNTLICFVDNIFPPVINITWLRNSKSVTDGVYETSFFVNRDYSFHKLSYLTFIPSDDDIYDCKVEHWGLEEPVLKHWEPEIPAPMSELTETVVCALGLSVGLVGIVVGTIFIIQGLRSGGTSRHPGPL
T3 sequence (P06343 28-263): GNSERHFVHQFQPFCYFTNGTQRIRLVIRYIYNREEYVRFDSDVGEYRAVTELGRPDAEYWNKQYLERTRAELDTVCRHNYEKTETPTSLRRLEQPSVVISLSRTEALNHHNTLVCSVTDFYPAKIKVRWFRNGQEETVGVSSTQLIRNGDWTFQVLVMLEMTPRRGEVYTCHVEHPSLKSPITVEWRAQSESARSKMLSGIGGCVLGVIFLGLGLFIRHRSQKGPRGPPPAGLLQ
Excerpt: as §1, §2, §3

P12-26: derived from the cI protein of bacteriophage lambda (residues 12-26)
Binding to the I-E^k molecule (in words) (I-E^k [1]): able to bind to both molecules as expected
T-cell proliferation by thymidine incorporation on culture with peptide [2]: T-cell proliferation as assayed by thymidine incorporation was seen
Number of peptide-specific hybrids restricted by I-E^d (I-E^d): none
Stimulation of DO-11.10 [3]: Neither of these peptides can stimulate DO-11.10 on its own
Inhibition of ovalbumin-specific T-cell activation (DO-11.10) ([3]; Ova (P324-336) as stimulator, A20 presenting cells, peptide at 50 μM, 24 hrs): act as inhibitors
IC50 (I-E^k [4]): 300 µM
Binding to the I-A^d molecule (in words) (I-A^d): able to bind to both molecules as expected
Proliferation (thymidine incorporation) [5]: 68,000 cpm
Inhibition of monoclonal antibody B3.11 binding [6]: Inhibition is observed
Binding to the I-A^k molecule (in words) (I-A^k): not bound; also recorded: inability of P12-26 to bind
